What all share (assay type): cell-based
Test [1] concerns Plasmodium falciparum, NF54 strain, IEF stage. Put plainly: In vitro antimalarial activity, NF54 drug sensitive strain. The settings on record: for Pf SI (selectivity index for P. falciparum = IC50 L6/IC50 Pf): NF54 strain vs L6. Here is the method:
(§1) The in vitro activities against the protozoan parasites T.b. rhodesiense, and P. falciparum and cytotoxicity assessment against L6 cells were determined as reported elsewhere.

Test [2] concerns L6 rat skeletal myoblast cell line. Put plainly: Cytotoxicity towards L6 cells. The settings on record: read-out: IC50 L6. On the procedure:
as §1

Test [3] deals with Trypanosoma brucei rhodesiense, STIB 900 strain, trypomastigotes stage. Briefly: In vitro anti-trypanosomal activity (growth inhibition). The note with it: Trypanosoma brucei, read-out: IC50 T. b. rhod. Here is the method:
as §1

Setting [4] is: L6 rat skeletal myoblast cell line, average of two independent assays.
[5] abbreviates: Plasmodium falciparum, NF54 strain, IEF stage, average of two independent assays, read-out: IC50 P. falc.
Where [6] appears, read: STIB 900 strain, trypomastigotes, average of two independent assays.
The mark [7] stands for this setting: NF54 strain, IEF stage, average of two independent assays, read-out: IC50 P. falc.

Like-named read-outs stand apart in the source and are kept apart here.

For the molecule `CCN(CC)CCCC(C)Nc1ccnc2cc(Cl)ccc12` (stereo not shown) [Chloroquine, reference compound], the IC50 in test [1] (Plasmodium falciparum, NF54, read-out: IC50 P. falc.) amounted to 4 nM.

`O=C(NCCCCNCCCNC(=O)C(=O)c1c[nH]c2cc(Br)ccc12)C(=O)c1c[nH]c2cc(Br)ccc12.O=C(O)C(F)(F)F` [Compound 5, 4-(2-(6-Bromo-1H-indol-3-yl)-2-oxoacetamido)-N-(3-(2-(6-bromo-1H-indol-3-yl)-2-oxoacetamido)propyl)butan-1-aminium 2,2,2-trifluoroacetate]: the IC50 was 5.5 µM in test [2] (setting [4]) and 250 nM in test [1] (setting [5]). For the same molecule, the “Pf SI (selectivity index for P. falciparum = IC50 L6/IC50 Pf)” value in test [1] is 22.

On to `O=C(NCCCNCCCCNCCCNC(=O)C(=O)c1c[nH]c2cc(Br)ccc12)C(=O)c1c[nH]c2cc(Br)ccc12.O=C(O)C(F)(F)F.O=C(O)C(F)(F)F` [Compound 6, N^1,N^4-Bis(3-(2-(6-bromo-1H-indol-3-yl)-2-oxoacetamido)propyl)butane-1,4-diaminium 2,2,2-trifluoroacetate], for which the concentration for half-maximal inhibition (IC50) in test [2] (setting [4]) is 7.7 µM; in test [1] (setting [5]), 360 nM. Besides, the “Pf SI (selectivity index for P. falciparum = IC50 L6/IC50 Pf)” value in test [1] was 21.

`CC(C)(C)OC(=O)N(CCCCCCCCN(CCCNC(=O)C(=O)c1c[nH]c2cc(Br)ccc12)C(=O)OC(C)(C)C)CCCNC(=O)C(=O)c1c[nH]c2cc(Br)ccc12` [Compound 7, Di-tert-butyl Octane-1,8-diylbis((3-(2-(6-bromo-1H-indol-3-yl)-2-oxoacetamido)propyl)carbamate)]: the IC50 in test [2] (setting [4]) stood at 92 µM; in test [1] (setting [5]), 270 nM. In test [1], the “Pf SI (selectivity index for P. falciparum = IC50 L6/IC50 Pf)” value is reported as 340.

Consider `O=C(NCCCNCCCCCCCCNCCCNC(=O)C(=O)c1c[nH]c2cc(Br)ccc12)C(=O)c1c[nH]c2cc(Br)ccc12.O=C(O)C(F)(F)F.O=C(O)C(F)(F)F` [Compound 8, N^1,N^8-Bis(3-(2-(6-bromo-1H-indol-3-yl)-2-oxoacetamido)propyl)octane-1,8-diaminium 2,2,2-trifluoroacetate], for which the IC50 is 5.6 µM in test [2] (setting [4]) and 410 nM in test [1] (setting [5]). Further, the “Pf SI (selectivity index for P. falciparum = IC50 L6/IC50 Pf)” value in test [1] was determined as 14.

Take `O=C(NCCCNCCCCNCCCNC(=O)C(=O)c1c[nH]c2ccccc12)C(=O)c1c[nH]c2ccccc12.O=C(O)C(F)(F)F.O=C(O)C(F)(F)F` [Compound 13, N^1,N^4-Bis(3-(2-(1H-indol-3-yl)-2-oxoacetamido)propyl)butane-1,4-diaminium 2,2,2-trifluoroacetate]: the IC50 in test [2] (setting [4]) stood at 60 µM; in test [1] (setting [5]) it was 120 nM. For the same molecule, the “Pf SI (selectivity index for P. falciparum = IC50 L6/IC50 Pf)” value in test [1] is listed as 500.

In the case of `COc1ccc2[nH]cc(C(=O)C(=O)NCCCN(CCCCCCCCN(CCCNC(=O)C(=O)c3c[nH]c4ccc(OC)cc34)C(=O)OC(C)(C)C)C(=O)OC(C)(C)C)c2c1` [Compound 18, Di-tert-butyl Octane-1,8-diylbis((3-(2-(5-methoxy-1H-indol-3-yl)-2-oxoacetamido)propyl)carbamate)], the results for the IC50 in test [2] (setting [4]), in test [3] (setting [6]) and in test [1] (setting [5]) were at least 120 µM, 6.2 µM and 130 nM, respectively. For the same molecule, in test [1], the “Pf SI (selectivity index for P. falciparum = IC50 L6/IC50 Pf)” value is recorded as at least 920.

On to `CC(C)(C)OC(=O)N(CCCCCCCCCCCCN(CCCNC(=O)C(=O)c1c[nH]c2ccccc12)C(=O)OC(C)(C)C)CCCNC(=O)C(=O)c1c[nH]c2ccccc12` [Compound 21, Di-tert-butyl Dodecane-1,12-diylbis((3-(2-(1H-indol-3-yl)-2-oxoacetamido)propyl)carbamate)], for which the IC50 in test [2] (setting [4]) is at least 120 µM; in test [3] (setting [6]), 61 µM; in test [1] (setting [5]), 1800 nM. In addition, in test [1], the “Pf SI (selectivity index for P. falciparum = IC50 L6/IC50 Pf)” value is recorded as at least 67.

Take `COc1ccc2[nH]cc(C(=O)C(=O)NCCCN(CCCCCCCCCCCCN(CCCNC(=O)C(=O)c3c[nH]c4ccc(OC)cc34)C(=O)OC(C)(C)C)C(=O)OC(C)(C)C)c2c1` [Compound 22, Di-tert-butyl Dodecane-1,12-diylbis((3-(2-(5-methoxy-1H-indol-3-yl)-2-oxoacetamido)propyl)carbamate)]: the values for the IC50 in test [2] (setting [4]), in test [3] (setting [6]) and in test [1] (setting [5]) were 19 µM, 5.2 µM and 360 nM, respectively. The “Pf SI (selectivity index for P. falciparum = IC50 L6/IC50 Pf)” value in test [1] is given as 53.

For the molecule `COc1ccc2c(C(=O)C(=O)NCCCN(CCCCCCCCCCCCN(CCCNC(=O)C(=O)c3c[nH]c4cc(OC)ccc34)C(=O)OC(C)(C)C)C(=O)OC(C)(C)C)c[nH]c2c1` [Compound 23, Di-tert-butyl Dodecane-1,12-diylbis((3-(2-(6-methoxy-1H-indol-3-yl)-2-oxoacetamido)propyl)carbamate)], the IC50 was at least 110 µM in test [2] (setting [4]), 62 µM in test [3] (setting [6]) and 1900 nM in test [1] (setting [5]). For the same molecule, the “Pf SI (selectivity index for P. falciparum = IC50 L6/IC50 Pf)” value in test [1] is on record as at least 58.

Consider `CC(C)(C)OC(=O)N(CCCCCCCCN(CCCNC(=O)Cc1c[nH]c2ccccc12)C(=O)OC(C)(C)C)CCCNC(=O)Cc1c[nH]c2ccccc12` [Compound 34, Di-tert-butyl Octane-1,8-diylbis((3-(2-(1H-indol-3-yl)acetamido)propyl)carbamate)], for which the IC50 in test [2] (setting [4]) was determined as 5 µM; in test [1] (setting [5]), 300 nM. Moreover, the “Pf SI (selectivity index for P. falciparum = IC50 L6/IC50 Pf)” value in test [1] is 17.

As to `CC(C)(C)OC(=O)N(CCCCCCCCCCCCN(CCCNC(=O)Cc1c[nH]c2ccccc12)C(=O)OC(C)(C)C)CCCNC(=O)Cc1c[nH]c2ccccc12` [Compound 35, Di-tert-butyl Dodecane-1,12-diylbis((3-(2-(1H-indol-3-yl)acetamido)propyl)carbamate)], the IC50 in test [2] (setting [4]) turned out to be 45 µM; in test [1] (setting [5]), 800 nM. The “Pf SI (selectivity index for P. falciparum = IC50 L6/IC50 Pf)” value in test [1] stood at 56.

On to `O=C(Cc1c[nH]c2ccccc12)NCCCNCCCCCCCCNCCCNC(=O)Cc1c[nH]c2ccccc12.O=C(O)C(F)(F)F.O=C(O)C(F)(F)F` [Compound 37, N^1,N^8-Bis(3-(2-(1H-indol-3-yl)acetamido)propyl)octane-1,8-diaminium 2,2,2-trifluoroacetate], for which the IC50 in test [2] (setting [4]) worked out at 64 µM; in test [1] (setting [5]) it was 150 nM. Moreover, the “Pf SI (selectivity index for P. falciparum = IC50 L6/IC50 Pf)” value in test [1] came to 430.

As for `O=C(Cc1c[nH]c2ccccc12)NCCCNCCCCCCCCCCCCNCCCNC(=O)Cc1c[nH]c2ccccc12.O=C(O)C(F)(F)F.O=C(O)C(F)(F)F` [Compound 38, N^1,N^12-Bis(3-(2-(1H-indol-3-yl)acetamido)propyl)dodecane-1,12-diaminium 2,2,2-trifluoroacetate], the IC50 turned out to be 19 µM in test [2] (setting [4]) and 120 nM in test [1] (setting [5]). Further, the “Pf SI (selectivity index for P. falciparum = IC50 L6/IC50 Pf)” value in test [1] was determined as 160.

Regarding `Nc1nc(N)nc(Nc2ccc([As]3SCC(CO)S3)cc2)n1` (stereo not shown) [Melarsoprol, reference compound], the IC50 in test [3] came to 0.005 µM.

Take `COc1cc([C@@H]2c3cc4c(cc3[C@H](O)[C@H]3COC(=O)[C@H]23)OCO4)cc(OC)c1OC` [Podophyllotoxin, reference compound]: the IC50 in test [2] (Rattus norvegicus, Myoblast) worked out at 0.019 µM.

Consider “N^1,N^4-Bis(3-(2-(5-methoxy-1H-indol-3-yl)acetamido)propyl)butane-1,4-diaminium 2,2,2-trifluoroacetate [Compound 14]”, for which the values for the IC50 in test [2] (setting [4]) and in test [1] (setting [7]) were 56 µM and 470 nM, respectively. The “Pf SI (selectivity index for P. falciparum = IC50 L6/IC50 Pf)” value in test [1] is 120.

Turning to “N^1,N^4-Bis(3-(2-(6-methoxy-1H-indol-3-yl)acetamido)propyl)butane-1,4-diaminium 2,2,2-trifluoroacetate [Compound 15]”, the results for the concentration for half-maximal inhibition (IC50) in test [2] (setting [4]) and in test [1] (setting [7]) were 54 µM and 500 nM, respectively. Further, in test [1], the “Pf SI (selectivity index for P. falciparum = IC50 L6/IC50 Pf)” value is 110.

Source of the values: article PMC4071569, “Investigation of Indolglyoxamide and Indolacetamide Analogues of Polyamines as Antimalarial and Antitrypanosomal Agents” (Marine Drugs, 2014).
